Patent US11414378B2, “Anti-fungals compounds targeting the synthesis of fungal sphingolipids” (THE RESEARCH FOUNDATION FOR THE STATE UNIVERSITY OF NEW YORK, priority 2017, dated 2022)
Values after ≈ are worked out from the molar mass of the structure shown.

Legend:
C. neoformans cells = assay: In vitro killing activity (K100) assay; assay type: cell-based, Cryptococcus neoformans; conditions: Cryptococcus neoformans; minimum concentration that kills 100% of C. neoformans cells in 48 h
Procedure: C. neoformans cells from a culture grown overnight were washed in PBS and resuspended in YNB buffered with HEPES at pH 7.4. The cells were counted, and 2×10^4 cells were incubated with different concentration of compounds in a final volume of 10 ml with a final concentration of 0.5% DMSO. The tubes were then incubated at 37° C. with 5% CO2 on a rotary shaker at 200 rpm. Aliquots were taken at time points and diluted, and […] were plated onto Yeast Extract-Peptone-Dextrose (YPD) plates. YPD plates were incubated in a 30° C. incubator and after 48 h, the numbers of CFU were counted and recorded.

C. neoformans [1] = assay: In vivo efficacy evaluation (survival study) in an animal model; design: species or system CBA/J mice; conditions: 20 mg/kg/day orally (gavage); mice infected intranasally with 5×10^5 C. neoformans cells
Procedure: For survival study, 4-week old CBA/J (Envigo) male mice were used. They were divided as ten mice for each treatment or control group. Mice were infected intranasally with 20 μl of a suspension containing 5×10^5 C. neoformans cells and subsequently treated orally with 20 mg/kg/day of compound A15 and fluconazole as drug control in a final volume of 100 μl of PEG30% in a saline buffer. The untreated control group mice received 100 μl of PEG30% in a saline buffer. Gavage was used as route of administration. At the end of the experiment, 80% of the mice treated with compound A15 survived whereas, only 30% of the mice treated with fluconazole survived. Mice were fed ad libitum and monitored every day for discomfort and meningitis signs. Mice showing weight loss, lethargy, tremor or inability to reach food or water were sacrificed and survival was counted until that day (see FIG. 2).

C. neoformans [2] = assay: In vitro susceptibility (MIC80) assay; assay type: cell-based; conditions: Cryptococcus neoformans; lowest concentration that inhibited 80% of growth; YNB pH 7.0, HEPES, 37° C., 5% CO2
Procedure: MICs was determined following the methods of the Clinical and Laboratory Standards Institutes (CLSI) with modifications. Yeast Nitrogen Base (YNB) medium (pH 7.0, 0.2% glucose) buffered with HEPES was used for MIC studies. […] The compound was serially diluted from 16 to 0.03 μg/ml, in a 96-well plate. The inoculum was prepared as described in the CLSI protocol M27A3 guidelines. The plates were incubated at 37° C. with 5% CO2 for 24 to 72 h and the optical density was measure at 450 nm. The MICs was determined as the lowest concentration of the compound that inhibited 80% of growth compared to the control.

C. neoformans [3] = assay: In vitro susceptibility testing (MIC / IC80); assay type: cell-based, Cryptococcus neoformans; conditions: Cryptococcus neoformans; Tables 1-3
Procedure: Minimal inhibitory concentration (MIC) was determined following the methods of the Clinical Laboratory Standards Institutes (CLSI) with modifications. MIC studies used either RPMI or YNB medium (pH 7.0, 0.2% glucose) buffered with HEPES. […] The compound was serially diluted from 32 to 0.03 μg/ml or 19 to 0.02 μg/ml respectively in a 96 well plate with the respective medium. The yeast inoculum was prepared as described in the CLSI protocol M27-A3 guidelines. Plates were incubated at 37° C. and in the presence of 5% CO2 for 24-96 hours. Against all fungal isolates used in the initial susceptibility screen, the MICs were determined as the lowest concentration of the drug that inhibited 50% of growth compared to the control. MIC80 and MIC100, whose drug concentrations inhibited 80% and 100% growth compared to the control respectively, were also determined. For antibacterial activity, E. coli DH5a and P. aeruginosa PA14 were grown overnight in Luria Bertani (LB) broth at 30° C. The cells were washed with PBS and counted. Then, 300 μL from 2×10^8 cells/mL was spreaded onto LB agar plate using a hockey stick glass spreader. The plate was dried, and wells were punched out using a cut tip. Fifty microliters of different drug concentration was added to the well. The plate was then incubated at 30° C. for 24 hours.

HepG2 = HepG2 toxicity; assay type: cell-based; conditions: Tables 1-3
A549 = A549 toxicity; assay type: cell-based; conditions: Tables 1-3
C. neoformans [4] = assay: In vitro killing assay (killing curve, Kapp, 48H killing); assay type: cell-based, Cryptococcus neoformans; conditions: 48H
Procedure: From an overnight culture, C. neoformans cells were washed in PBS, resuspended in YNB buffered with HEPES at pH 7.4. Cells were counted and 2×10^4 cells were incubated with either 1, 2 or 4 μg/ml of compound in a final volume of 10 ml. Tubes were then incubated at 37° C. in the presence of 5% CO2 on a rotary shaker at 200 rpm. At the illustrated time points, aliquots were taken and diluted and 100 μL was plated onto yeast peptone dextrose (YPD) plates. YPD plates were incubated in a 30° C. incubator and, after 72 hours, colony forming units (CFU) were counted and recorded.

Row | SMILES | MFC (C. neoformans cells) [µg/mL] | mice survived at the end of the experiment (C. neoformans [1]) [%] | MIC80 (C. neoformans [2]) [µg/mL] | melting point [°C] | IC80 (C. neoformans [3]) [µg/mL] | HepG2 (HepG2) [µg/mL] | A549 (A549) [µg/mL] | Killing assay 48H (μg/mL) (C. neoformans [4])
1 | COCc1ccc(C(=O)N/N=C/c2cc(Br)cc(Br)c2O)cc1 [Compound A15, 4-Methoxymethyl-N′-(3,5-dibromo-2-hydroxybenzylidene)benzohydrazide] | 0.03 (≈ 0.0679 µM) | 80 | 0.007 (≈ 0.0158 µM) | – | – | – | – | –
2 | OC(Cn1cncn1)(Cn1cncn1)c1ccc(F)cc1F [fluconazole, reference compound] | – | 30 | – | – | – | – | – | –
3 | [N-]=[N+]=Nc1ccc(C(=O)N/N=C/c2cc(Br)cc(Br)c2O)cc1 [Compound A45, 4-Azido-N′-(3,5-dibromo-2-hydroxybenzylidene)benzohydrazide] | – | – | 0.06 (≈ 0.137 µM) | 193 to 197 | – | – | – | –
4 | O=C(N/N=C/c1ccc(Br)cc1O)c1cc(Br)cc(Br)c1O [drawing 79] | – | – | – | – | 0.06 (≈ 0.122 µM) | 32 | 32 | Fungistatic
5 | O=C(N/N=C/c1cc(Br)cc(Br)c1O)c1cnc2ccccc2c1 [drawing 62] | – | – | – | – | 0.25 (≈ 0.557 µM) | 32 | 32 | Fungistatic
